Data published in US10182500B2, “Curable composition for photoimprint, cured product, and method of producing film having pattern, optical component, circuit board, or electronic component using the composition” (CANON KABUSHIKI KAISHA, priority 2014, dated 2019).
Like-named read-outs stand apart in the source and are kept apart here.

Columns and labels:
[1] = 1 h
Experimental: (§1) An arbitrary amount of a photopolymerization initiator is weighed in a sample bottle at 23° C., and a condensable gas cooled to 5° C. to a liquid state is gradually added to the bottle until the photopolymerization initiator is completely dissolved. The sample bottle is capped and is left to stand in a refrigerator at 5° C. for 1 hour. The sample bottle is then subjected to visual observation whether the photopolymerization initiator is completely dissolved. The weight of the weighed photopolymerization initiator is divided by the sum of the weight of the photopolymerization initiator and the weight of the condensable gas in a liquid state, and the resulting quotient is expressed in percentage as the saturated solubility.
(§2) The sample bottle was capped and was left to stand in a refrigerator at 5° C. for 1 hour. The sample bottle was then visually observed.

[2] = Saturated solubility in liquid condensable gas (PFP), visual observation; conditions: for Saturated solubility: to PFP, liquid state at 5° C. and 1 atm
Experimental: as §1, §2

[3] = composition mainly composed of an acrylic monomer; cited from earlier work

Cc1cc(C)c(C(=O)P(=O)(c2ccccc2)c2ccccc2)c(C)c1 [Formula (1), 2,4,6-trimethylbenzoyldiphenylphosphine oxide]
Saturated solubility [1]: <1.0 % by weight
saturated solubility [1]: less than 1 % by weight

COC(OC)(C(=O)c1ccccc1)c1ccccc1 [Formula (6), benzyl dimethyl ketal]
saturated solubility ([2]; at 5° C. in PFP being a liquid state at 5° C. and 1 atm): higher than 2.67 % by weight

CC(C)c1ccc2sc3ccccc3c(=O)c2c1 [Formula (3), 2-isopropylthioxanthone]
Saturated solubility [2]: <1.0 % by weight

FC(F)CC(F)(F)F [1,1,1,3,3-pentafluoropropane]
PFP dissolved in curable composition for photoimprint [3]: about 40 % by volume

CCN(CC)c1ccc(C(=O)c2ccc(N(CC)CC)cc2)cc1 [Formula (4), 4,4′-bis(diethylamino)benzophenone]
Saturated solubility [2]: <1.0 % by weight
